# Measured values reported in US20060003896A1, “Novel diterpenoid compounds imparting stress resistance to plants” (National Institute of Agrobiological Sciences, priority 2002, published 2006).
# Legend:
# WIPK = WIPK activity measurement (MBP phosphorylation by anti-WIPK immune complex) in treated tobacco leaves; type: cell-based, Nicotiana tabacum cv. Samsun NN
# Method: The WIPK induced activity assay was conducted as follows: A filter paper was spread in a glass Petri dish of 3 cm inside diameter, onto which the test solution for assay was added, organic solvent was removed under the flow of nitrogen gas, and 10 mM Mes-NaOH (pH 5.6) of 1 ml was added, on which three leaf disks (diameter 9 mm) stamped out of the tobacco leaves were placed per Petri dish and cultured at 24° C. In two hours, the disks were collected and immediately frozen in liquid nitrogen to be used in WIPK activity measurement that was conducted following the method described in Seo et al. (1999) Plant Cell 11, 289-291. The outline is as follows:
# Crude protein of 50 μg and anti-WIPK antibody were reacted and the myelin basic protein phosphorylation activity of WIPK in the resultant immune complex was measured.
# (§1) Isolated material was dissolved in dimethyl sulfoxide (DMSO) and diluted with 10 mM Mes-NaOH (pH 5.6) to an adequate concentration. If it was used in an assay, the DMSO concentration was kept below 0.1%. […] 10 mM Mes-NaOH (pH 5.6) without active substance of the invention was used as a control group. In a certain amount of time, the leaves were collected and immediately frozen in liquid nitrogen to conduct WIPK activity measurement or RNA extraction for Northern blot analysis. WIPK activity measurement, RNA extraction and Northern blot analysis were performed following Seo et al. (1999) plant Cell 11, 289-291. WIPK activity was measured 15 minutes after the subject was allowed to absorb the isolated compound at the given concentration through the petiole. Only buffer was absorbed in a control group. As another control group (healthy leaf), leaves were cut from tobacco plant body to be immediately subjected to WIPK activity measurement. For proteinase inhibitor II (PI-II), basic PR-1, basic PR-2 genes and ACO, transcription product amounts of PI-II, basic PR-1, basic PR-2 genes and ACO-coding gene were measured after allowing the subject absorb the isolated compound at the given concentration through the petiole for a period of time. As a control group, only buffer was absorbed. The outline is as follows:
# (§2) Using natural isolated substances, preparations at concentrations of 10 and 100 pM, and 1 and 100 nM were prepared and these natural preparations or water were penetrated into tobacco leaf disks, followed by sampling at 30 minutes after treatment, to measure the MBP phosphorylation activity of WIPK and SIPK as described above.
# SIPK = SIPK activity measurement (MBP phosphorylation by anti-SIPK immune complex) in treated tobacco leaves; type: cell-based, Nicotiana tabacum cv. Samsun NN
# Method: As an active substance, the substance isolated in Example 1 was used as a standard. The isolated substance was dissolved in dimethyl sulfoxide (DMSO) and diluted to adequate concentration (0.3, 1.5 and 3 ng/ml) with 10 mM Mes-NaOH (pH 5.6). If it was used in an assay, the DMSO concentration was kept below 0.1%. […] 10 mM Mes-NaOH (pH 5.6) without active substance of the invention was used as a control group. In a certain amount of time, the leaves were collected and immediately frozen in liquid nitrogen to measure the SIPK activity. The measurement was conducted as follows:
# Crude protein of 50 μg and anti-SIPK antibody were reacted and the myelin basic protein (MBP) phosphorylation activity of SIPK in the resultant immune complex was measured.
# as §2
# ACO-coding gene = assay: Northern blot analysis of transcription products in treated tobacco leaves; type: cell-based, Nicotiana tabacum cv. Samsun NN; details: through the petiole
# Method: as §1, with “follows: Nucleic acid hybridization reaction was performed on nylon membrane containing 20 μg total RNA with ^32P-radiolabeled cDNA of tobacco PI-II, basic PR-1, basic PR-2 genes and ACO-coding gene. After the membrane was washed it was used to expose to an X-ray film.” for “follows:”
# basic PR-1 gene = assay: as above; type: cell-based, Nicotiana tabacum cv. Samsun NN; details: through the petiole
# Method: as §1, with “follows: Nucleic acid hybridization reaction was performed on nylon membrane containing 20 μg total RNA with ^32P-radiolabeled cDNA of tobacco PI-II, basic PR-1, basic PR-2 genes and ACO-coding gene. After the membrane was washed it was used to expose to an X-ray film.” for “follows:”
# basic PR-2 gene = assay: as above; type: cell-based, Nicotiana tabacum cv. Samsun NN; details: through the petiole
# Method: as §1, with “follows: Nucleic acid hybridization reaction was performed on nylon membrane containing 20 μg total RNA with ^32P-radiolabeled cDNA of tobacco PI-II, basic PR-1, basic PR-2 genes and ACO-coding gene. After the membrane was washed it was used to expose to an X-ray film.” for “follows:”
# [1] = test system: proteinase inhibitor II gene; assay: as above; type: cell-based, Nicotiana tabacum cv. Samsun NN
# Method: as §1, with “follows: Nucleic acid hybridization reaction was performed on nylon membrane containing 20 μg total RNA with ^32P-radiolabeled cDNA of tobacco PI-II, basic PR-1, basic PR-2 genes and ACO-coding gene. After the membrane was washed it was used to expose to an X-ray film.” for “follows:”
# JA = assay: Intrinsic JA level in tobacco leaves after absorption through the petiole; type: cell-based; details: 3-, 6-, 12- or 24-hours culture
# Method: To evaluate whether the induction of basic pathogenesis-related protein gene (PR-1 and PR-2) and proteinase inhibitor II gene by synthetic substance occurred through JA or SA, 100 nM or 1 μM WAF-1 or water was absorbed into tobacco leaves through the petiole, followed by culture at 24° C., to measure the intrinsic level of JA.
# SA = assay: Intrinsic SA level in tobacco leaves after absorption through the petiole; type: cell-based; details: 3-, 6-, 12- or 24-hours culture
# ethylene = assay: Release of ethylene from treated tobacco leaf; type: cell-based
# Method: Ethylene acts as a signal in the induction of basic PR protein of tobacco plant, so the release of ethylene was measured after externally giving WAF-1 to a tobacco leaf as above to evaluate the effects of synthetic substance on ethylene accumulation.
# WIZZ gene = assay: RNA gel blotting of WIZZ transcript in tobacco leaf disks; type: cell-based; details: 1 nM, 30 minutes after penetrance
# Method: The transition in expression of the WIZZ transcript after stimulation with WAF-1 in this invention was ascertained using the following method. Leaf disks stamped out of tobacco leaves were penetrated with 1 nM WAF-1 solution or water and collected at 30 minutes after penetrance to be used for total RNA extraction. Total RNA extraction followed the method described in Seo et al. Plant Cell 1999, 11, 289-299. Isolated total RNA was subjected to RNA gel blotting analysis following the above procedure. A fragment, whose sequence corresponded to bases 877-1211 in the WIZZ cDNA (335 bp) was amplified, and used as a probe. As an internal standard probe, actin cDNA (described in Seo et al. 2000 12, 917-932) was also used. An RNA gel blot membrane containing 20 μg total RNA per lane was analized.
# vermin = assay: Presenting vermin to rice administered with the substance; type: in vivo; details: vermin presented
# Method: Therefore, an experiment was conducted by administering this substance to plants and presenting vermin to the administered plant. In this example, rice was used as a target.
# [2] = test system: Arabidopsis (Arabidopsis thaliana); assay: Growth of periphery and height of stem after spraying; type: in vivo; details: sprayed, 300, 100 and 30 ng/ml, 24° C.
# Method: (§3) In this Example, 15-day-old Arabidopsis (Arabidopsis thaliana), 1-month-old tobacco (Nicotiana tabacum cv. Samsun—NN), or 20-day-old rice (Oryza sativa) was used to provide plant bodies. The compound of this invention was dissolved in dimethyl sulfoxide (DMSO) and diluted with 10 mM Mes-NaOH (pH 5.6) to an adequate concentration (300, 100 and 30 ng/ml). 10 mM of Mes-NaOH containing the compound of this invention at the given concentration was sprayed to tobacco and rice plant bodies, followed by culture at 24° C. As a control group, 10 mM Mes-NaOH (pH 5.6) free of the compound of this invention was used. In a certain amount of time, the periphery and the height of stem above ground level were measured in rice, Arabidopsis and tobacco plant bodies.
# rice (Oryza sativa) = assay: as above; type: in vivo; details: sprayed, 300, 100 and 30 ng/ml, 24° C.
# Method: as §3
# [3] = test system: tobacco (Nicotiana tabacum cv. Samsun—NN); assay: as above; type: in vivo; details: sprayed, 300, 100 and 30 ng/ml, 24° C.
# Method: as §3
# petunia plant body = assay: Flowering of petunia plant bodies after spraying; type: in vivo
# Method: In this example, 1-month-old petunia plant body was used. The compound of this invention was dissolved in dimethyl sulfoxide (DMSO) and diluted with 10 mM Mes-NaOH (pH 5.6) to an adequate concentration (300, 100 and 30 ng/ml). 10 mM Mes-NaOH containing the compound of this invention at the given concentration was sprayed on the petunia plant bodies, followed by culture at 24° C. In a control group, 10 mM Mes-NaOH (pH 5.6) without the compound of this invention was used. After a certain amount of time, observation of the gross flowering features of the plant bodies was performed. The administration of the compound of this invention to plants was then discontinued, only buffer was sprayed, and the flowering was observed.
# TMV = assay: Defense of tobacco against TMV infection (necrotic lesion size, TMV coat protein); type: in vivo, tobacco mosaic virus
# Method: To complete the infection, this healthy leaf was allowed to stand at room temperature for 30 minutes and washed with water removing the silicon carbide, after air drying, was put into a transparent plastic box spread with wet filter papers, followed by culture at 30° C. for 40 hours, then at 20° C. for 6 hours.
# In this Example, the substance in this invention was administered to non-TMV-infected tobacco as a target. TMV stimulation was then given, under the same conditions as those in Example 1, to plants administered with the substance of this invention at the concentrations shown in FIG. 12 and tp control plant not administered to measure the size of necrotic lesions and the amount of TMV coat protein.
# [4] = 1, 5 and 10 nM through the petiole
# [5] = tobacco leaf disks, 30 minutes after treatment
compound,measurement,setting,value
"CC(/C=C/[C@@H]1[C@@]2(C)CCCC(C)(C)[C@@H]2CC[C@@]1(C)O)=C\CO [WAF-1, (11E,13E)-labda-11,13-diene-8α,15-diol]",time at which WIPK activity was maximized,WIPK; [4],15 min
same,time at which induction of WIPK activity was observed,WIPK; [4],5 min
same,WIPK activity at 30 minutes,"WIPK; 1, 5 and 10 nM through the petiole, 30 minutes",retained maximum activity
same,induction of WIPK activity,"WIPK; each concentration of FIG. 2A given to leaf through the petiole, 15 minutes",induction of WIPK activity at any concentration
same,concentration above which activation of WIPK is significant,WIPK; [5],> 10 pM
same,time at which induction of SIPK activity was maximized,SIPK; [4],15 min
same,induction of SIPK activity,"SIPK; each concentration of FIG. 4 (0.3, 1.5 and 3 ng/ml) through the petiole, 15 minutes",induction of SIPK activity at any concentration
same,concentration above which activation of SIPK is significant,SIPK; [5],> 10 pM
same,accumulation of ACO,ACO-coding gene,accumulation
same,accumulation of basic PR-1,basic PR-1 gene,accumulation
same,accumulation of basic PR-2,basic PR-2 gene,accumulation
same,amount of proteinase inhibitor II transcript compared with control group,[1]; 16 hours,significantly more
same,time at which accumulation of transcription products of proteinase inhibitor II gene was detected,"[1]; examined in 2, 6 and 16 hours, concentration of FIG. 3, through the petiole",16 h
same,amount of JA in treated leaves,JA; 100 nM,at the same level as those treated with water
same,amount of JA in treated leaves,JA; 1 AM (so in the source),at the same level as those treated with water
same,amount of SA in treated leaves,SA; 100 nM,at the same level as those treated with water
same,amount of SA in treated leaves,SA; 1 AM (so in the source),at the same level as those treated with water
same,"level of ethylene released from leaves, relative to leaf treated with water",ethylene; 100 nM,1.2 times
same,"level of ethylene released from leaves, relative to leaf treated with water",ethylene; 1 μM,1.4 times
same,level of WIZZ transcript compared with leaf disks impregnated with water,WIZZ gene,higher
same,growth in administered rice compared with rice not administered,vermin,Growth was regulated
same,growth of periphery and height of stem vs control group,[2],delay in growth of the periphery and height of stem
same,growth of height above ground level vs control group,rice (Oryza sativa),growth of height above ground level was observed
same,growth of periphery and height of stem vs control group,[3],delay in growth of the periphery and height of stem
same,flowering after discontinuation of administration,petunia plant body; only buffer sprayed,observation of flowering
same,flowering vs control group,"petunia plant body; sprayed, 300, 100 and 30 ng/ml, 24° C.",delay in flowering
"(11E,13E)-labda-11,13-diene-8α,15-diol [WAF-1]",TMV coat protein amount,"TMV; tobacco leaf, 100 pM or 100 nM vs water",decrease
same,concentration above which the size of necrotic lesions decreased,"TMV; tobacco, TMV stimulation, 10 pM to 100 nM, dose-dependent",higher than 100 pM
